According to patent publication US4064255A, “Compositions containing new indole derivatives and their use in pharmacology” (Mar-Pha Societe d'Etudes et d'Exploitation de Marques, priority 1975, dated 1977):
Where two headings read alike, the source gives them in different places.

Legend:
[1] = test system: noradrenaline (NA) recapture by brain synaptosomes; assay: in vitro inhibition of noradrenaline uptake (recapture) by rat-brain synaptosomes; assay type: biochemical; settings: read-out: I50, dose inhibiting 50% of recapture by brain synaptosomes of noradrenaline (NA)
Excerpt: (§1) The entire disclosure of Kannengiesser et al is relied on in this connection and incorporated herein by reference.

[2] = test system: dopamine (DA) recapture by brain synaptosomes; assay: in vitro inhibition of dopamine uptake (recapture) by rat-brain synaptosomes; assay type: biochemical; settings: read-out: I50, dose inhibiting 50% of recapture by brain synaptosomes of dopamine (DA)
Excerpt: as §1

5-HTP hypermotility = assay: potentiation of 5-HTP hypermotility in mice; assay type: in vivo, male mouse CD1 (Charles River); settings: 30 min after 5-HTP 150 mg/kg i.p., motility 45th-75th minute
Procedure: The effectiveness of the compounds of the present invention in blocking serotonine uptake also was shown using the potentiation test of 5-hydroxy tryptophane (5-HTP).
1, 11-1972. This test consists of looking for the potentiation of the hypermotility induced by 5-HTP. for high dosages the precursor will induce very characteristic hypermotility with jumps.
The animals are divided into groups of 25 mice and treated i.p. with 150 mg/kg of 5-HTP. The products to be tested are administered sub-cutaneously, 30 minutes after the 5-HTP, the control group receiving only the administrative vehicle. The overall motility of the animals is measured from the 45th to the 75th minute after (administration of) the 5-HTP. The results for the treated groups are shown in % increase in motility with respect to the control group.

[3] = acute toxicity in mice (LD50); assay type: in vivo, male mouse CD1 (Charles River); settings: mouse, in vivo, male CD1 mice, three days' observation
Procedure: (§2) The toxicity and acute symptomatologies of the compounds of the invention were determined in the male mouse CD1 (Charles River) in intravenous and oral manner. The LD50 were computed following three days' observation by the cumulative method of Reed & Muench (Am. J. Hyg. 27, 493, 1938).

[4] = test system: serotonin (5HT) recapture by brain synaptosomes; assay: in vitro inhibition of serotonin uptake (recapture) by rat-brain synaptosomes; assay type: biochemical; settings: for selectivity of action on cerebral serotonin: in words; for IC50: rat-brain synaptosomes, 5HT, read-out: I50, dose inhibiting 50% of recapture by brain synaptosomes of serotonin (5HT)
Excerpt: as §1

mice = assay: acute toxicity in mice (LD50); assay type: in vivo, male mouse CD1 (Charles River); settings: intravenous, male CD1 mice, three days' observation; 4320 min
Procedure: as §2

[5] = intravenous, read-out: LD50 I.V.

| Structure (SMILES) | IC50 [1] | IC50 [2] | Potentiation of 5-HTP hypermotility, % change with respect to controls (5-HTP hypermotility; 15 mg/kg s.c.) | LD50 at 72 h [3, 5] | LD50 at 72 h ([3]; oral, read-out: LD50 orally) | selectivity of action on cerebral serotonin [4] | IC50 [4] | LD50 I.V. (mice) | Potentiation of 5-HTP hypermotility, % change with respect to controls (5-HTP hypermotility; 5 mg/kg s.c.) | Potentiation of 5-HTP hypermotility, % change with respect to controls (5-HTP hypermotility; 25 mg/kg s.c.) |
| --- | --- | --- | --- | --- | --- | --- | --- | --- | --- | --- |
| CN(C)CCCN1c2ccccc2CCc2ccc(Cl)cc21 [Clomipramine, reference compound] | 7 µM | 5 µM | +190% | 45 mg/kg | 380 mg/kg | – | – | – | – | – |
| O=C(CC1CCNCC1)c1c[nH]c2ccccc12 [Example 1, INDOLYL-3 (PIPERIDYL-4 METHYL) KETONE] | 20 µM | 65 µM | – | – | – | act more selectively than clomipramine | 0.08 µM | 47 mg/kg | – | – |
| COc1ccc2[nH]cc(C(=O)CC3CCNCC3)c2c1 [Example 2, (METHOXY-5 INDOLYL-3) (PIPERIDYL-4 METHYL) KETONE] | 160 µM | 70 µM | – | 44 mg/kg | > 900 mg/kg | – | 0.65 µM | – | – | – |
| O=C(CC1CCNCC1)c1c[nH]c2ccc(Cl)cc12 [Example 3, (CHLORO-5 INDOLYL-3) (PIPERIDYL-4 METHYL) KETONE] | 30 µM | 12 µM | – | – | 300 to 900 mg/kg | – | 0.6 µM | – | – | – |
| Cn1cc(CCC2CCNCC2)c2ccccc21 [Example 9, [(METHYL-1 INDOLYL-3)-2 ETHYL]-4 PIPERIDINE] | 60 µM | 60 µM | – | 44 mg/kg | 225 mg/kg | act more selectively than clomipramine | 0.02 µM | – | +134% | +296% |
| c1ccc2c(CCC3CCNCC3)c[nH]c2c1 [Example 10, [(INDOLYL-3)-2 ETHYL]-4 PIPERIDINE] | 8 µM | 4 µM | – | 60 mg/kg | 600 mg/kg | act more selectively than clomipramine | 0.04 µM | – | +196% | +262% |
| c1ccc2c(CC3CCNCC3)c[nH]c2c1 [Example 11, (INDOLYL-3 METHYL) -4 PIPERIDINE] | 5 µM | 4 µM | – | 57 mg/kg | 225 mg/kg | – | 0.15 µM | – | – | – |
| c1ccc2c(CCCC3CCNCC3)c[nH]c2c1 [Example 13, [(INDOLYL-3)-3 PROPYL]-4 PIPERIDINE] | 13 µM | 5.5 µM | – | – | – | act more selectively than clomipramine | 0.04 µM | – | – | – |
